Values joined by “and” are separate entries in the source; they are usually repeats but may differ in a detail not shown here. Identical values can stand only once.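 The compound was tested at five concentrations on cells cultured in 96-well plates, with a 48-hour exposure period. At the GI50, growth is halved.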 Active and inactive are the calls of the source. No stated cut-off is given here; in the data, active = GI50 up to about 1.1 µM and inactive = higher.
What was measured:
Experiment in all cases: inhibition of tumour cell growth, NCI panel, 48 h
CCRF-CEM = system: CCRF-CEM
M14 = system: M14
PC-3 = system: PC-3
Malme-3M = system: Malme-3M
CAKI-1 = system: CAKI-1
UACC-62 = system: UACC-62
MDA-MB-231 = system: MDA-MB-231
HL-60 = system: HL-60
HCT-116 = system: HCT-116
KM12 = system: KM12
SW-620 = system: SW-620
OVCAR-8 = system: OVCAR-8
HCC 2998 = system: HCC 2998
DU-145 = system: DU-145
SK-MEL-2 = system: SK-MEL-2
U-251 = system: U-251
TK-10 = system: TK-10
UACC-257 = system: UACC-257
NCI-H522 = system: NCI-H522

Measured: GI50

COc1cc(OCc2ccc3nc(-c4ccccc4)c(N)nc3c2)cc(OC)c1OC
inactive: CCRF-CEM 16.7 µM | M14 15.8 µM | PC-3 17.8 µM | Malme-3M 13.4 µM | CAKI-1 23.4 µM | UACC-62 13.4 µM | MDA-MB-231 25.5 µM | HL-60 12.4 µM | HCT-116 3.61 µM | KM12 18.6 µM | SW-620 28.2 µM | OVCAR-8 27.8 µM | HCC 2998 35 µM | DU-145 22.2 µM | SK-MEL-2 19.9 µM | U-251 32.5 µM | TK-10 24.1 µM | UACC-257 25 µM | NCI-H522 13.6 µM

CN(CCN)[C@H](CSSC[C@@H](c1ccccc1O)N(C)CCN)c1ccccc1O
inactive: CCRF-CEM 1.44 µM | M14 13.5 µM | PC-3 11.7 µM | Malme-3M 16.3 µM | CAKI-1 13 µM | UACC-62 10 µM | MDA-MB-231 8.81 µM | HCT-116 4.12 µM | KM12 11.1 µM | SW-620 15.7 µM | OVCAR-8 9.04 µM | HCC 2998 12 µM | DU-145 14.8 µM | SK-MEL-2 14.6 µM | U-251 15.9 µM | TK-10 13.9 µM | UACC-257 14.9 µM | NCI-H522 16.5 µM

COC1(OC)c2occc2C(=N)c2ccc(=O)oc21
inactive: CCRF-CEM 85.9 µM | M14 > 100 µM | PC-3 > 100 µM | Malme-3M 18.2 µM | CAKI-1 > 100 µM | UACC-62 > 100 µM | MDA-MB-231 > 100 µM | HL-60 45.8 µM | HCT-116 > 100 µM | SW-620 > 100 µM | HCC 2998 > 100 µM | DU-145 > 100 µM | SK-MEL-2 > 100 µM | U-251 > 100 µM | TK-10 > 100 µM | UACC-257 > 100 µM | NCI-H522 > 100 µM

CC(=O)OCC1OC(NC(=S)CCSc2nc3ccccc3c(=O)n2-c2ccccc2)C(OC(C)=O)C(OC(C)=O)C1OC(C)=O (configuration not stated)
inactive: CCRF-CEM 27.2 µM | M14 46.1 µM | PC-3 40.9 µM | Malme-3M > 100 µM | CAKI-1 > 100 µM | UACC-62 28.4 µM | MDA-MB-231 > 100 µM | HL-60 29.2 µM | HCT-116 73.5 µM | KM12 36.5 µM | SW-620 41.2 µM | OVCAR-8 > 100 µM | HCC 2998 39.3 µM | DU-145 > 100 µM | SK-MEL-2 22.1 µM | U-251 38.1 µM | UACC-257 30.4 µM | NCI-H522 25.6 µM

Cc1ccc(S(=O)(=O)N2CCN(CCO)CCN(S(=O)(=O)c3ccc(C)cc3)CCN(CCO)CC2)cc1
inactive: CCRF-CEM 22.9 µM | M14 17.1 µM | PC-3 33 µM | CAKI-1 37.8 µM | UACC-62 18.2 µM | MDA-MB-231 21.7 µM | HL-60 18 µM | HCT-116 15 µM | KM12 20.6 µM | SW-620 33.7 µM | OVCAR-8 28 µM | HCC 2998 15.4 µM | DU-145 15 µM | SK-MEL-2 16.5 µM | U-251 25.4 µM | TK-10 28.2 µM | UACC-257 10.3 µM | NCI-H522 18.7 µM

Cn1c(=O)oc2cc(C(=O)CN3CCN(Cc4ccc5c(c4)OCO5)CC3)c(Cl)cc21
inactive: CCRF-CEM > 100 µM | PC-3 > 100 µM | Malme-3M > 100 µM | CAKI-1 > 100 µM | UACC-62 > 100 µM | MDA-MB-231 > 100 µM | HL-60 > 100 µM | HCT-116 > 100 µM | HCC 2998 > 100 µM | DU-145 > 100 µM | SK-MEL-2 > 100 µM | U-251 > 100 µM

N#CCC(=O)N/N=C\C(O)C(O)C(O)C(O)CO (configuration not stated)
inactive: CCRF-CEM > 100 µM | M14 > 100 µM | PC-3 > 100 µM | Malme-3M > 100 µM | CAKI-1 > 100 µM | UACC-62 > 100 µM | MDA-MB-231 > 100 µM | HL-60 > 100 µM | KM12 > 100 µM | SW-620 > 100 µM | OVCAR-8 > 100 µM | HCC 2998 > 100 µM | DU-145 > 100 µM | SK-MEL-2 > 100 µM | TK-10 > 100 µM | UACC-257 > 100 µM | NCI-H522 > 100 µM

Nc1nc(Cl)cc(NCC2(CO)CCC(CCc3ccccc3)C2)n1 (configuration not stated)
inactive: M14 13.7 µM | PC-3 19.3 µM | Malme-3M 16 µM | CAKI-1 13.5 µM | UACC-62 13.2 µM | MDA-MB-231 16.6 µM | HL-60 6.21 µM | HCT-116 2.29 µM | KM12 13.9 µM | SW-620 2.02 µM | OVCAR-8 14.6 µM | HCC 2998 17.5 µM | DU-145 14.8 µM | SK-MEL-2 18.5 µM | U-251 15 µM | TK-10 18 µM | UACC-257 6.22 µM | NCI-H522 11.4 µM

O=C1OC(c2ccccc2)=N/C1=C\c1cccc(F)c1
inactive: CCRF-CEM 35.7 µM | M14 57.8 µM | PC-3 > 100 µM | CAKI-1 > 100 µM | UACC-62 > 100 µM | MDA-MB-231 > 100 µM | HL-60 24.9 µM | HCT-116 > 100 µM | KM12 33.5 µM | SW-620 > 100 µM | OVCAR-8 26.2 µM | HCC 2998 72.3 µM | DU-145 > 100 µM | SK-MEL-2 > 100 µM | U-251 38.1 µM | TK-10 > 100 µM | UACC-257 32.7 µM | NCI-H522 16 µM

CC1(C)OC(=O)N(c2ccccc2)C12C=Cc1cccc([N+](=O)[O-])c1O2 (configuration not stated)
inactive: CCRF-CEM 37.3 µM | M14 51.6 µM | PC-3 31 µM | CAKI-1 > 100 µM | UACC-62 80 µM | MDA-MB-231 > 100 µM | HL-60 17.5 µM | HCT-116 67 µM | KM12 58.6 µM | SW-620 > 100 µM | OVCAR-8 92.7 µM | HCC 2998 > 100 µM | DU-145 > 100 µM | SK-MEL-2 > 100 µM | U-251 65.9 µM | TK-10 > 100 µM | UACC-257 47.6 µM | NCI-H522 36.5 µM

COc1ccc(C2=Cc3nc2c(-c2ccccc2)c2ccc([nH]2)c(-c2ccccc2)c2nc(c(-c4ccccc4)c4ccc([nH]4)c3-c3ccccc3)C=C2)cc1
inactive: CCRF-CEM > 100 µM | M14 > 100 µM | PC-3 > 100 µM | Malme-3M > 100 µM | CAKI-1 > 100 µM | UACC-62 > 100 µM | MDA-MB-231 > 100 µM | HL-60 > 100 µM | HCT-116 > 100 µM | KM12 > 100 µM | SW-620 > 100 µM | OVCAR-8 > 100 µM | HCC 2998 > 100 µM | DU-145 > 100 µM | SK-MEL-2 > 100 µM | U-251 30.5 µM | TK-10 > 100 µM

CCCC[C@@H](C)/C=C1\CN2CCC[C@H]2[C@@](C)(OCc2ccccc2)[C@@H]1O
inactive: CCRF-CEM > 50 µM | M14 > 50 µM | PC-3 > 50 µM | Malme-3M > 50 µM | CAKI-1 > 50 µM | UACC-62 > 50 µM | MDA-MB-231 > 50 µM | HCT-116 > 50 µM | KM12 > 13.8 µM | SW-620 > 50 µM | OVCAR-8 > 47.4 µM | HCC 2998 > 50 µM | DU-145 > 14.4 µM | SK-MEL-2 > 50 µM | U-251 > 34.4 µM | TK-10 > 38.5 µM | UACC-257 > 17.6 µM | NCI-H522 > 27.9 µM

Cn1c([C@H](C#N)C(=O)c2cc(O)ccc2[N+](=O)[O-])nc2ccccc21
inactive: CCRF-CEM 10.6 µM | M14 > 100 µM | PC-3 > 100 µM | Malme-3M 17.2 µM | CAKI-1 > 100 µM | UACC-62 > 100 µM | MDA-MB-231 > 100 µM | HL-60 > 100 µM | HCT-116 > 100 µM | KM12 > 100 µM | OVCAR-8 > 100 µM | HCC 2998 > 100 µM | DU-145 > 100 µM | SK-MEL-2 > 100 µM | U-251 > 100 µM | TK-10 > 100 µM | UACC-257 > 100 µM | NCI-H522 > 100 µM

CN(C)CCOC1(Cc2ccc(F)cc2)CCC(C(C)(C)C)CC1 (configuration not stated)
inactive: CCRF-CEM 3.19 µM and 2.64 µM | M14 1.67 µM and 2.05 µM | PC-3 5.85 µM and 5.07 µM | Malme-3M 4.38 µM and 2.84 µM | CAKI-1 6.47 µM and 7.69 µM | UACC-62 4.36 µM and 6.52 µM | MDA-MB-231 9.62 µM and 10.5 µM | HL-60 2.84 µM and 2.93 µM | HCT-116 4.39 µM and 4.75 µM | KM12 5.62 µM and 5.02 µM | SW-620 4.37 µM and 7.36 µM | OVCAR-8 11.2 µM and 12.8 µM | HCC 2998 2.96 µM and 3.14 µM | DU-145 9.2 µM and 9.44 µM | U-251 5.28 µM and 6.25 µM | TK-10 6.95 µM and 12 µM | UACC-257 5.58 µM and 4.09 µM | NCI-H522 6.08 µM and 10.7 µM

NC(=O)C1=C(c2ccccc2)c2ccccc2C1=O
inactive: CCRF-CEM 2.75 µM | M14 19.1 µM | PC-3 17.8 µM | CAKI-1 16 µM | UACC-62 17.4 µM | MDA-MB-231 17.8 µM | HL-60 3.57 µM | HCT-116 16.9 µM | KM12 16.1 µM | SW-620 25.1 µM | OVCAR-8 15.6 µM | HCC 2998 15.8 µM | DU-145 17.1 µM | SK-MEL-2 19.9 µM | U-251 18.3 µM | TK-10 18.1 µM | UACC-257 13.6 µM | NCI-H522 18.6 µM

Reference: ChEMBL document CHEMBL1201862, “PubChem BioAssay data set” (2004)
